According to paper PMC4980083 (JCI insight, 2016):
Changes are numbered by the printed parent chain.

Experiments:
LNCaP95 cells = assay: LNCaP95 proliferation, BrdU incorporation; format: cell-based, human; details: I-EPI-002 2 μM, EPI-002 25 μM, enzalutamide 5 μM; 2 days
ERα = ERα (Homo sapiens, UniProt P03372); assay: ER transcriptional activity, ERE luciferase reporter; format: cell-based; details: estradiol induced
[1] = target: T1, full-length AR and AR-V567es (Homo sapiens, UniProt P10275); assay: Probasin luciferase activity in LNCaP cells, full-length AR and AR-V567es; details: I-EPI-002 2 μM, enzalutamide 5 μM; presence or absence of androgen
T1 sequence (P10275 1-920): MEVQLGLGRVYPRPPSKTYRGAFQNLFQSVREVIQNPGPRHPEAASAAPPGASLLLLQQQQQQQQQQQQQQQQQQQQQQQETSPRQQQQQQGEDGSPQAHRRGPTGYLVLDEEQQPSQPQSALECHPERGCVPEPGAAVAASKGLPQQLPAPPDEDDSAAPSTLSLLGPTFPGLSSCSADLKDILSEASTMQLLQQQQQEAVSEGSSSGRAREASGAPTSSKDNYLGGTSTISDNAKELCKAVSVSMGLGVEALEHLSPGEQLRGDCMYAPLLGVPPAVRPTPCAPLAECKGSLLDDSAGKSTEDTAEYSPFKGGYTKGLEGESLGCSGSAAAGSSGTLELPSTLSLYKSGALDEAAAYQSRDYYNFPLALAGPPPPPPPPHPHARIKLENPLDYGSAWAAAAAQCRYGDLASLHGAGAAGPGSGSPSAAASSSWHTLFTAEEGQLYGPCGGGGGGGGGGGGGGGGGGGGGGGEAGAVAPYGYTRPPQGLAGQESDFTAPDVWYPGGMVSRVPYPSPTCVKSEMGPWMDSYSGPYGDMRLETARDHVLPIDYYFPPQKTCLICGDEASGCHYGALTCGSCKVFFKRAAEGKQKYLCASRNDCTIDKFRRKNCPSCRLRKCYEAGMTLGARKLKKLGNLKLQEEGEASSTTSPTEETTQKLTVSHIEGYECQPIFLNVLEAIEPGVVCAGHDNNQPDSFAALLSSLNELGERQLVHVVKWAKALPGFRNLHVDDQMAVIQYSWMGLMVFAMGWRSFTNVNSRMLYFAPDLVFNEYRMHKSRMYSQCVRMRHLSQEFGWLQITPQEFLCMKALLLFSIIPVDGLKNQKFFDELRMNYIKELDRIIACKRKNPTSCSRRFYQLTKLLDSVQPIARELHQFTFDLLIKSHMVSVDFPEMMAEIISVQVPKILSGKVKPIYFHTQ
T1 sequence (P10275 with tags, fused parts or gaps limits assumed): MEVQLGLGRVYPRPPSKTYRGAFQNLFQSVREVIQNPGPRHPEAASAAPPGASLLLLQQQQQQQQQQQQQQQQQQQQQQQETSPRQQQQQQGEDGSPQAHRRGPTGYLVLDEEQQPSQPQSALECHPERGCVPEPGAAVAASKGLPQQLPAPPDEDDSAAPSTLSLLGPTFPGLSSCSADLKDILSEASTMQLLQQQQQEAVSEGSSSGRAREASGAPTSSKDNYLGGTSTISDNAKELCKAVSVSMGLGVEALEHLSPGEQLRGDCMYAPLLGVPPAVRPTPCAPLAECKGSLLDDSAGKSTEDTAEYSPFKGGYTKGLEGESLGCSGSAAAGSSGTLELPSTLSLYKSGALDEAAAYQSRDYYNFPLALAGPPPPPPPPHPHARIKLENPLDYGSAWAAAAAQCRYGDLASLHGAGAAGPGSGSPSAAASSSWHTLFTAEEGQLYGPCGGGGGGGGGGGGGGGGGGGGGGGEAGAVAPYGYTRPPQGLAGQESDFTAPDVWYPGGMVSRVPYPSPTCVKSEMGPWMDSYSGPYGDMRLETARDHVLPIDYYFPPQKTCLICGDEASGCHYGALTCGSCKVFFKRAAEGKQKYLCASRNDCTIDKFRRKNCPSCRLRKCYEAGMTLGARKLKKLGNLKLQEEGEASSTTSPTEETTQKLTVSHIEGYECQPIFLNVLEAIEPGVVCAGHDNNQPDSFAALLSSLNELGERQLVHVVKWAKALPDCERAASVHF

PC3 cells = assay: PC3 proliferation/viability; format: cell-based, human; details: up to 10 times the IC50 required to reduce AR-dependent proliferation; 3 days
[2] = target: T2, endogenous full-length AR (Homo sapiens, UniProt P10275, T878A); assay: Probasin luciferase activity in LNCaP cells, endogenous full-length AR; details: I-EPI-002 2 μM, enzalutamide 5 μM; R1881 1 nM 24 hours
T2 sequence (P10275 1-920 T878A): T1 sequence (P10275 1-920) with T878A

ERα, sequence (P03372 whole entry): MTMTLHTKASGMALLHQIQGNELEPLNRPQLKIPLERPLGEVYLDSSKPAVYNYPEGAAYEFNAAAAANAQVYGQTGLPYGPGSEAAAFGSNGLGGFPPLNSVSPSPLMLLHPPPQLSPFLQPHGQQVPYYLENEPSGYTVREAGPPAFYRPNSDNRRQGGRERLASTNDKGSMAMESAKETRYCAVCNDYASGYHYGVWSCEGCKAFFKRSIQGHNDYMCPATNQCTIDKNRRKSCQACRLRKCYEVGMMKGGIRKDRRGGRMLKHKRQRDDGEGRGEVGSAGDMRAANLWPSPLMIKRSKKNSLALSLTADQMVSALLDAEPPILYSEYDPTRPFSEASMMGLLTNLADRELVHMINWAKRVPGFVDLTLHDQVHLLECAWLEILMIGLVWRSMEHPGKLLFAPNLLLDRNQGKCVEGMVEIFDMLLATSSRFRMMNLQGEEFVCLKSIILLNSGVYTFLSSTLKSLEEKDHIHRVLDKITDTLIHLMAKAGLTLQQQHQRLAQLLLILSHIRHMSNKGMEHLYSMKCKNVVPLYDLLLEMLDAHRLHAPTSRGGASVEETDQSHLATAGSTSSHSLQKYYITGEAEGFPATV

15-IodoEPI002 [I-EPI-002]
effect on proliferation of LNCaP95 cells (LNCaP95 cells): decreased proliferation | inhibition of ER transcriptional activity (ERα): did not inhibit | inhibition of probasin luciferase activity, full-length AR with V567es [1]: showed good inhibition | effect on proliferation or viability of PC3 cells (PC3 cells): no effect | inhibition of probasin luciferase activity, full-length AR [2]: showed good inhibition
